# Assays:
# Conditions in all cases: 72 h
# [1] = test system: Calu-3; experiment: relative viability EC50 (midpoint between 100% and the lowest measured viability); higher = less toxic
# [2] = test system: Vero E6; experiment: as above
# [3] = test system: Caco-2; experiment: as above
# [4] = test system: HepG2; experiment: as above
# [5] = test system: Calu-3; experiment: drug sensitivity score (DSS) for viability; higher = more toxic; extreme values may be limits of the assay
# [6] = test system: Vero E6; experiment: as above
# [7] = test system: Caco-2; experiment: as above
# [8] = test system: HepG2; experiment: as above
# [9] = test system: Calu-3; experiment: cell viability relative to DMSO; higher = less toxic
# [10] = test system: Vero E6; experiment: as above
# [11] = test system: Caco-2; experiment: as above
# [12] = test system: HepG2; experiment: as above
# [13] = test system: U2OS; experiment: relative viability EC50 (midpoint between 100% and the lowest measured viability); higher = less toxic
# [14] = test system: U2OS; experiment: drug sensitivity score (DSS) for viability; higher = more toxic; extreme values may be limits of the assay
# [15] = test system: U2OS; experiment: cell viability relative to DMSO; higher = less toxic
Compound,relative viability EC50 [1],relative viability EC50 [2],relative viability EC50 [3],relative viability EC50 [4],drug sensitivity score [5],drug sensitivity score [6],drug sensitivity score [7],drug sensitivity score [8],cell viability ([9]; 1 nM),cell viability ([9]; 10 nM),cell viability ([9]; 100 nM),cell viability ([9]; 1000 nM),cell viability ([9]; 10000 nM),cell viability ([10]; 1 nM),cell viability ([10]; 10 nM),cell viability ([10]; 100 nM),cell viability ([10]; 1000 nM),cell viability ([10]; 10000 nM),cell viability ([11]; 1 nM),cell viability ([11]; 10 nM),cell viability ([11]; 100 nM),cell viability ([11]; 1000 nM),cell viability ([11]; 10000 nM),cell viability ([12]; 1 nM),cell viability ([12]; 10 nM),cell viability ([12]; 100 nM),cell viability ([12]; 1000 nM),cell viability ([12]; 10000 nM),relative viability EC50 [13],drug sensitivity score [14],cell viability ([15]; 1 nM),cell viability ([15]; 10 nM),cell viability ([15]; 100 nM),cell viability ([15]; 1000 nM),cell viability ([15]; 10000 nM)
O=C(Cc1ccc(Cl)c(Cl)c1)N1CCCC[C@@H]1CN1CCCC1,> 10 µM,> 10 µM,> 10 µM,> 10 µM,0,0,0,0.4,100%,105%,92.1%,109%,103%,102%,104%,99.5%,105%,98.7%,85.2%,97%,104%,95.5%,102%,95.8%,93.5%,99.1%,89.8%,83.5%,–,–,–,–,–,–,–
"Cc1cc(C)cc(C(=O)O[C@H]2C[C@H]3CC[C@@H](C2)N3C)c1 [tropanyl-3,5-dimethylbenzoate]",> 10 µM,> 10 µM,> 10 µM,> 10 µM,0,0,0,0,99.7%,107%,98.2%,106%,93.3%,91.8%,94.3%,96.3%,91.7%,108%,104%,97.6%,92.7%,102%,94.9%,99.5%,106%,102%,92.7%,93.2%,–,–,–,–,–,–,–
O=C1C(Cl)=C(NCCN2CCOCC2)C(=O)c2ncccc21,3.61 µM,–,1.46 µM,2.04 µM,4.7,1.7,9.4,7.8,110%,104%,100%,109%,5.1%,102%,100%,100%,99.3%,65.4%,94%,90.9%,89.5%,68.4%,1.1%,94%,90.7%,87.6%,86.1%,1.6%,2.8 µM,6.2,98.1%,94.1%,99.5%,95.3%,0%
O=C(Nc1ccc(N2CCC(C(=O)N3CCOCC3)CC2)cc1)c1cnc(Oc2ccccc2)nc1 [TFC-007],> 10 µM,> 10 µM,> 10 µM,> 10 µM,0,0,0,0,96%,87.6%,100%,100%,103%,90.1%,101%,90%,95%,110%,99.6%,101%,110%,97.9%,110%,106%,110%,101%,91.8%,91.4%,–,–,–,–,–,–,–
CCCC[C@H]1C(=O)N(c2ccccc2)N(c2ccc(O)cc2)C1=O [oxyphenbutazone],> 10 µM,–,2.41 µM,2.66 µM,0,2.5,3.8,6,91.2%,104%,103%,110%,97.6%,105%,107%,109%,101%,50.3%,99.6%,89.2%,96.7%,94.9%,44.2%,103%,102%,105%,94.2%,7.9%,2.83 µM,5.6,101%,95.8%,100%,96%,9.3%
C[C@@H]1CC(=O)NN=C1c1ccc(NN=C(C#N)C#N)cc1 [levosimendan],> 10 µM,> 10 µM,> 10 µM,> 10 µM,0,0,0,0,93.7%,95.8%,100%,97.3%,109%,95.6%,102%,85.7%,103%,99%,97.2%,113%,98.9%,96%,94.6%,101%,102%,98.5%,99.6%,88.4%,–,1.8,99%,96.8%,101%,96.2%,71.3%
COc1ccc(CC(=O)NC(/N=C(\NC#N)Nc2cccc3ncccc23)C(C)(C)C)cc1OC (configuration not stated),> 10 µM,> 10 µM,> 10 µM,> 10 µM,0,0,0,0,113%,96.5%,95.6%,109%,103%,103%,97%,91.1%,96.9%,99.8%,101%,97.8%,94.1%,101%,99.7%,107%,95.7%,93.8%,97.5%,106%,–,–,–,–,–,–,–
Clc1cccc(-n2nnnc2NCc2ccccc2Oc2ccccn2)c1Cl,> 10 µM,–,> 10 µM,> 10 µM,0,–,0,0,92%,93.5%,88%,89.1%,102%,–,–,–,–,–,104%,97.1%,104%,96.2%,96.1%,104%,98.4%,104%,104%,92.1%,> 10 µM,0,101%,98.9%,100%,102%,98.9%
C[n+]1ccccc1C=NO [pralidoxime],> 10 µM,–,> 10 µM,> 10 µM,0,–,0,0,96.6%,93.1%,93.8%,91.3%,110%,–,–,–,–,–,103%,94.5%,105%,99.8%,95%,106%,115%,102%,101%,89.7%,> 10 µM,0,100%,97.4%,103%,98.4%,103%
O=c1ccc2c(OCCCCOc3ccccc3)c3ccoc3cc2o1 [AS-77],> 10 µM,–,> 10 µM,> 10 µM,0,–,0,0,97.5%,92.5%,95.8%,102%,98.4%,–,–,–,–,–,97%,99%,96.6%,105%,89.7%,106%,99.4%,98.3%,94.4%,90%,> 10 µM,0,98.1%,102%,101%,104%,100%
CC(=O)N[C@H]1[C@H]([C@H](O)[C@H](O)CO)OC(C(=O)O)=C[C@@H]1NC(=N)N [zanamivir],> 10 µM,> 10 µM,> 10 µM,> 10 µM,0,0,0,0,93.8%,92%,93.2%,91.8%,95.1%,94.6%,98.4%,90.6%,98.7%,109%,96.4%,90.9%,101%,101%,106%,93.4%,95.5%,95.7%,110%,107%,–,–,–,–,–,–,–
NC(=O)c1nc(F)cnc1O [favipiravir],> 10 µM,> 10 µM,> 10 µM,> 10 µM,0,0,0,0,100%,105%,98.5%,111%,97.7%,109%,88.4%,101%,96.8%,103%,88.5%,91.7%,71.8%,84.7%,88.6%,102%,98.8%,103%,79.1%,118%,–,–,–,–,–,–,–
COc1ccc(CCC(=O)c2c(O)cc(O[C@@H]3O[C@H](CO)[C@@H](O)[C@H](O)[C@H]3O[C@@H]3O[C@@H](C)[C@H](O)[C@@H](O)[C@H]3O)cc2O)cc1O [Neohesperidin dihydrochalcone (Nhdc)],> 10 µM,> 10 µM,> 10 µM,> 10 µM,0,0,0,0,108%,92.8%,102%,99.6%,109%,103%,104%,99.9%,104%,99.7%,102%,104%,95.2%,94.2%,106%,101%,110%,108%,107%,92.1%,–,–,–,–,–,–,–
